Where two headings read alike, the source gives them in different places.
Legend:
BRD4-2 = molecular target: T1, BRD4-2 (Homo sapiens, UniProt O60885); test: HTRF (TR-FRET) assay, BRD4-2 binding to acetylated histone H4 peptide
T1 construct: made in house; host or cells: Escherichia coli
Method: (§1) Binding of the two tandem bromodomains, BRD4-1 and BRD4-2, to an acetylated histone H4 peptide was measured using a homogeneous time resolved fluorescence resonance energy transfer (TR-FRET) assay. […] BRD4-1 and BRD4-2 were expressed and purified from Escherichia coli as N-terminal His6-tagged proteins. An XL665 labeled anti-His antibody (Cisbio) was used to specifically bind BRD4 and a cryptate labeled streptavidin protein was used because it specifically recognized the biotinylated H4 peptide. […] After an assay reaction time of 60 minutes at 25° C., binding was measured with 2 nM crytptate labeled streptavidin and 10 nM anti-His-XL665 antibody. TR-FRET signal was detected on an Envision plate reader (Ex: 320 nm; Em: 615/665 nm; 100 us delay and 200 μs read window). […] All IC50 values represent geometric mean values of a minimum of four determinations.

BRD4-1 [1] = molecular target: T2, BRD4-1 (Homo sapiens, UniProt O60885); test: HTRF (TR-FRET) assay, BRD4-1 binding to acetylated histone H4 peptide
T2 construct: made in house; host or cells: Escherichia coli
Method: as §1

BRD4-1 [2] = molecular target: T2, BRD4-1; test: Alpha assay, BRD4-1 binding to acetylated histone H4 peptide
Method: Binding of the bromodomain BRD4-I to an acetylated histone H4 peptide was measured using a bead-based Amplified Luminescent Proximity Homogeneous Assay (ALPHA). […] BRD4-I was expressed and purified from Escherichia coli as an N-terminal His6-tagged protein. Nickel-Chelate ALPHA acceptor beads (Perkin Elmer) were used to specifically bind BRD4-1 and ALPHA streptavidin donor beads (Perkin Elmer) were used because they specifically recognized the biotinylated H4 peptide. […] Assays were performed in 50 mM Hepes (pH 7.5), 150 mM NaCl, 0.1 mg/ml BSA, 0.01% (v/v) Brij, 0.5% (v/v) DMSO, 200 nM H4 peptide and 15 nM of BRD4-1 protein. After an assay reaction time of 60 minutes at 25° C., binding was measured with 20 μg/ml streptavidin donor beads and 20 μg/ml nickle-chelate acceptor beads. ALPHA signal was detected on an Envision plate reader (Ex: 320 nm; Em: 570 nm; Ex time: 180 ms). […] All IC50 values represent geometric mean values of a minimum of four determinations.

[3] = 120 nM BRD4-2, 200 nM H4 peptide, 60 minutes at 25° C., geometric mean of a minimum of four determinations, read-out: HTRF BRD4-2 (IC50)
[4] = 60 nM BRD4-1, 200 nM H4 peptide, 60 minutes at 25° C., geometric mean of a minimum of four determinations, read-out: HTRF BRD4-1 (IC50)
[5] = 15 nM BRD4-1, 200 nM H4 peptide, 60 minutes at 25° C., geometric mean of a minimum of four determinations, read-out: Alpha Assay (IC50)

Row | SMILES | IC50 (BRD4-2; [3]) [nM] | IC50 (BRD4-1 [1]; [4]) [nM] | IC50 (BRD4-1 [2]; [5]) [nM] | IC50 (BRD4-2) [nM] | IC50 (BRD4-1 [2]) [nM] | IC50 (BRD4-1 [1]) [nM]
1 | Cc1noc(C)c1-c1cc(S(=O)(=O)NC2CCCC2)c2nc(NCC3CC3)[nH]c2c1 [Compound 1020-1, N-Cyclopentyl-2-(cyclopropylmethylamino)-6-(3,5-dimethylisoxazol-4-yl)-1H-benzo[d]imidazole-4-sulfonamide] | 97.6 | 201 | – | – | – | –
2 | CSc1nc2c(S(=O)(=O)NC3CCCC3)cc(-c3c(C)noc3C)cc2[nH]1 [Compound 1020-4, N-Cyclopentyl-6-(3,5-dimethylisoxazol-4-yl)-2-(methylthio)-1H-benzo[d]imidazole-4-sulfonamide] | 230 | 337 | – | – | – | –
3 | Cc1noc(C)c1-c1cc(S(=O)(=O)NC2CCCC2)c2nc([S+](C)[O-])[nH]c2c1 (stereo not shown) [Compound 1020-5, N-Cyclopentyl-6-(3,5-dimethylisoxazol-4-yl)-2-(methylsulfinyl)-1H-benzo[d]imidazole-4-sulfonamide] | 357 | 616 | – | – | – | –
4 | Cc1cnn(C)c1-c1cc(-c2c(C)noc2C)cc2nc(C3CC3)[nH]c12 [Compound 1020-12, 4-(2-Cyclopropyl-7-(1,4-dimethyl-1H-pyrazol-5-yl)-1H-benzo[d]imidazol-5-yl)-3,5-dimethylisoxazole] | 69.2 | 138 | 46.2 | – | – | –
5 | Cc1noc(C)c1-c1cc(-c2cccnc2-c2ccccc2)c2nc(C3CC3)[nH]c2c1 [Compound 1020-19, 4-(2-Cyclopropyl-4-(2-phenylpyridin-3-yl)-1H-benzo[d]imidazol-6-yl)-3,5-dimethylisoxazole] | 172 | 134 | 28 | – | – | –
6 | CC/C=C(\CC)c1cc(-c2c(C)noc2C)cc2nc(C3CC3)[nH]c12 [Compound 1020-28, (E)-4-(2-Cyclopropyl-4-(hex-3-en-3-yl)-1H-benzo[d]imidazol-6-yl)-3,5-dimethylisoxazole] | 65.5 | 71.8 | 18.1 | – | – | –
7 | Cc1noc(C)c1-c1cc(C(C)c2ccc(F)cc2)c2[nH]c(C3CC3)nc2c1 (stereo not shown) [Compound 1020-44, 4-(2-Cyclopropyl-4-(1-(4-fluorophenyl)ethyl)-1H-benzo[d]imidazol-6-yl)-3,5-dimethylisoxazole] | 111 | 139 | 22 | – | – | –
8 | Cc1noc(C)c1-c1cc(NC2CCCC2)c2nc(C3CC3)[nH]c2c1 [Compound 1020-50, N-Cyclopentyl-2-cyclopropyl-6-(3,5-dimethylisoxazol-4-yl)-1H-benzo[d]imidazol-4-amine] | 318 | 299 | 125 | – | – | –
9 | Cc1ccnc(C)c1-c1cc(-c2c(C)noc2C)cc2nc(C3CC3)[nH]c12 [Compound 1020-57, 4-(2-Cyclopropyl-7-(2,4-dimethylpyridin-3-yl)-1H-benzo[d]imidazol-5-yl)-3,5-dimethylisoxazole] | 54.4 | 109 | 22.6 | – | – | –
10 | Cc1n[nH]c(C)c1-c1cc(-c2c(C)noc2C)cc2nc(C3CC3)n(C)c12 [Compound 1020-72, 4-(2-cyclopropyl-7-(3,5-dimethyl-1H-pyrazol-4-yl)-1-methyl-1H-benzo[d]imidazol-5-yl)-3,5-dimethylisoxazole] | 69.1 | 101 | 12.3 | – | – | –
11 | Cc1ccc2ncccc2c1-c1cc(-c2c(C)noc2C)cc2nc(C3CC3)n(C)c12 [Compound 1020-74, 4-(2-Cyclopropyl-1-methyl-7-(6-methylquinolin-5-yl)-1H-benzo[d]imidazol-5-yl)-3,5-dimethylisoxazole] | 112 | 97.1 | 18.9 | – | – | –
12 | Cc1nc2cc(-c3c(C)noc3C)cc(-c3c(C)n[nH]c3C)c2[nH]1 [Compound 1020-77, 4-(7-(3,5-Dimethyl-1H-pyrazol-4-yl)-2-methyl-1H-benzo[d]imidazol-5-yl)-3,5-dimethylisoxazole] | 64.8 | 244 | 42.7 | – | – | –
13 | Cc1n[nH]c(C)c1-c1cc(-c2c(C)noc2C)cc2nc(C3CC3(F)F)[nH]c12 (stereo not shown) [Compound 1020-78, 4-(2-(2,2-Difluorocyclopropyl)-7-(3,5-dimethyl-1H-pyrazol-4-yl)-1H-benzo[d]imidazol-5-yl)-3,5-dimethylisoxazole] | 94.1 | 161 | 25.1 | – | – | –
14 | Cc1n[nH]c(C)c1-c1cc(-c2c(C)noc2C)cc2[nH]c(NCC3CC3)nc12 [Compound 1020-79, N-(Cyclopropylmethyl)-4-(3,5-dimethyl-1H-pyrazol-4-yl)-6-(3,5-dimethylisoxazol-4-yl)-1H-benzo[d]imidazol-2-amine] | 87.2 | 161 | 33.6 | – | – | –
15 | Cc1n[nH]c(C)c1-c1cc(-c2c(C)noc2C)cc2[nH]c(NC3CC3)nc12 [Compound 1020-81, N-Cyclopropyl-4-(3,5-dimethyl-1H-pyrazol-4-yl)-6-(3,5-dimethylisoxazol-4-yl)-1H-benzo[d]imidazol-2-amine] | 119 | 169 | 50.7 | – | – | –
16 | Cc1ccnc(C)c1-c1cc(-c2c(C)noc2C)cc2[nH]cnc12 [Compound 1020-84, 4-(4-(2,4-Dimethylpyridin-3-yl)-1H-benzo[d]imidazol-6-yl)-3,5-dimethylisoxazole] | 234 | 481 | 277 | – | – | –
17 | Cc1ccc2ncccc2c1-c1cc(-c2c(C)noc2C)cc2[nH]c(-c3cnn(C)c3)nc12 [Compound 1020-88, 3,5-Dimethyl-4-(2-(1-methyl-1H-pyrazol-4-yl)-4-(6-methylquinolin-5-yl)-1H-benzo[d]imidazol-6-yl)isoxazole] | 131 | 104 | 15.9 | – | – | –
18 | Cc1ccc2ncccc2c1-c1cc(-c2c(C)noc2C)cc2[nH]c(C(O)CCO)nc12 (stereo not shown) [Compound 1020-89, 1-(6-(3,5-dimethylisoxazol-4-yl)-4-(6-methylquinolin-5-yl)-1H-benzo[d]imidazol-2-yl)propane-1,3-diol] | 151 | 379 | 130 | – | – | –
19 | COc1nc2c(-c3c(C)ccc4ncccc34)cc(-c3c(C)noc3C)cc2[nH]1 [Compound 1020-90, 4-(2-methoxy-4-(6-methylquinolin-5-yl)-1H-benzo[d]imidazol-6-yl)-3,5-dimethylisoxazole] | 121 | 110 | 29.9 | – | – | –
20 | Cc1ccc2ncccc2c1-c1cc(-c2c(C)noc2C)cc2[nH]c(C(F)(F)F)nc12 [Compound 1020-92, 3,5-Dimethyl-4-(4-(6-methylquinolin-5-yl)-2-(trifluoromethyl)-1H-benzo[d]imidazol-6-yl)isoxazole] | 102 | 133 | 37.7 | – | – | –
21 | Cc1n[nH]c(C)c1-c1cc(-c2c(C)noc2C)cc2nc(N)[nH]c12 [Compound 1020-96, 4-(3,5-Dimethyl-1H-pyrazol-4-yl)-6-(3,5-dimethylisoxazol-4-yl)-1H-benzo[d]imidazol-2-amine] | 96.9 | 276 | 53.7 | – | – | –
22 | Cc1noc(C)c1-c1cc(C(O)(c2ccccc2)c2ccccc2)c2nc(C3CC3)[nH]c2c1 [Compound 1020-102, (2-Cyclopropyl-6-(3,5-dimethylisoxazol-4-yl)-1H-benzo[d]imidazol-4-yl)diphenylmethanol] | 75.7 | 101 | 14.3 | – | – | –
23 | CCC(CC)c1cc(-c2c(C)noc2C)cc2[nH]c(C3CC3)nc12 [Compound 1020-120, 4-(2-Cyclopropyl-4-(pentan-3-yl)-1H-benzo[d]imidazol-6-yl)-3,5-dimethylisoxazole] | – | – | – | 76.1 | 39.7 | 88.5
24 | Cc1noc(C)c1-c1cc(C(O)C2CCCC2)c2nc(C3CC3)[nH]c2c1 (stereo not shown) [Compound 1020-121, Cyclopentyl(2-cyclopropyl-6-(3,5-dimethylisoxazol-4-yl)-1H-benzo[d]imidazol-4-yl)methanol] | 80.8 | 95.2 | 24.7 | – | – | –
25 | Cc1noc(C)c1-c1cc(S(=O)(=O)NC2CCCC2)c2nc(Cc3ccccc3)[nH]c2c1 [Compound 1020-141, 2-Benzyl-N-cyclopentyl-6-(3,5-dimethylisoxazol-4-yl)-1H-benzo[d]imidazole-4-sulfonamide] | 111 | 704 | – | – | – | –
26 | Cc1noc(C)c1-c1cc(S(=O)(=O)NC2CCCC2)c2nc(NCC(F)(F)F)[nH]c2c1 [Compound 1020-148, N-Cyclopentyl-6-(3,5-dimethylisoxazol-4-yl)-2-(2,2,2-trifluoroethylamino)-1H-benzo[d]imidazole-4-sulfonamide] | 180 | 186 | – | – | – | –
